From US20230309562A1 (priority 2020, published 2023)
Where two headings read alike, the source gives them in different places.

Key:
[1] = test system: Ebola virus; details: exposure times of at least several minutes required, cited from earlier work
[2] = test system: Influenza A; type: cell-based
[3] = test system: SARS COVID-19; type: cell-based; details: for TCID 50% viral kill: 5-minute exposure
[4] = test system: infectious microorganism; details: cited from earlier work

In the case of `OCl` [sodium hypochlorite, Sodium hypochlorite], the “destruction of Ebola virus” value ([1]; 0.5% solution) is given as “effectively destroy” and the “destruction of Ebola virus” value ([1]; 1% solution) is given as “effectively destroy”.

With `OCl` [HOCl, hypochlorous acid] the “TCID 50% viral kill” value [2] was “viral kill positive”, the “virus kill by HOCl treatment” value [2] was “killed” and the “TCID 50% viral kill” value ([3]; 1 ppm) was “viral kill positive”. For the same compound, the “TCID 50% viral kill” value ([3]; 2.5 ppm) was “viral kill positive”, the “TCID 50% viral kill” value ([3]; 10 ppm) was “viral kill positive” and the “TCID 50% viral kill” value ([3]; 25 ppm) was “viral kill positive”. For the same compound, the “virus kill by HOCl treatment” value ([3]; concentrations of between 1 ppm and 25 ppm) was “killed”, the growth inhibition ([4]; 2.6 ppm, in 5 minutes) was 100% and the LD50 ([4]; reported) was 0.0104-0.156 ppm.
